{"source": "patent US20020137929A1", "about": "“1 - (3-heterocyclylphenyl) isothiourea, -isourea, -guanidine and -amidine herbicidal agents” (Intellectual Property Department, BASF Aktiengesellschaft, priority 1998, published 2002)", "key": {"[1]": {"system": "SAGPY (Arrowhead (Pygmaea))", "assay": "Postemergence weed control under flooded paddy conditions", "format": "in vivo, Sagittaria pygmaea", "conditions": "rate 0.2500 kg/ha, postemergence weeds, 3-4 weeks after treatment", "in_short": "(§1)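 Containers holding 3–5 cm weeds and rice at 1.5–2.5 leaves are flooded to 1.5–3 cm above soil. Compound in 50/50 v/v aqueous/acetone is then added directly to the water, about 0.0313–0.500 kg/ha. Plants are kept in the greenhouse and rated 0–9 visually at 3–4 weeks.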"}, "[2]": {"system": "CYPIR (Rice Flatsedge)", "assay": "Preemergence weed control under flooded paddy conditions", "format": "in vivo, Cyperus iria", "conditions": "0.2500 kg/ha, rated 3-4 weeks after treatment", "in_short": "(§2)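 Flooded-pot preemergence screen with silt loam and seeds in the upper 0.5 cm. Dose about 0.0313 to 0.500 kg/ha, delivered into flood water; visual 0-9 score after 3 to 4 weeks.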"}, "[3]": {"system": "ZEAMX (Corn, Field)", "assay": "Preemergence herbicidal evaluation", "format": "in vivo, Zea mays", "conditions": "rated 4-5 weeks after treatment", "in_short": "(§3)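 Greenhouse preemergence test: seed-soil mix sown on ~1 inch soil; aqueous acetone spray at equivalent of ~0.0156–0.500 kg/ha; greenhouse-held and watered; scored 0–9 visually at 4–5 weeks.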"}, "[4]": {"system": "ECHORC (Watergrass (Calif.))", "assay": "Postemergence weed control under flooded paddy conditions", "format": "in vivo, Echinochloa oryzoides", "conditions": "rate 0.2500 kg/ha, postemergence weeds, 3-4 weeks after treatment", "in_short": "as §1"}, "[5]": {"system": "IPOHE (Morningglory, Ivyleaf)", "assay": "Postemergence herbicidal evaluation", "format": "in vivo, Ipomoea hederacea", "in_short": "(§4)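 Visual 0–9 rating versus control (stand, vigor, malformation, size, chlorosis, overall appearance), taken four to five weeks post-spray. Two-week-old seedlings received roughly 0.0156–0.500 kg/ha active in acetone/water (50/50) with 0.5% TWEEN 20 via nozzle at 40 psi.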"}, "[6]": {"system": "TRZAWR (Wheat, Winter, cv Riband)", "assay": "Postemergence herbicidal evaluation", "format": "in vivo, Triticum aestivum", "in_short": "as §4"}, "[7]": {"system": "IPOHE (Morningglory, Ivyleaf)", "assay": "Preemergence herbicidal evaluation", "format": "in vivo, Ipomoea hederacea", "conditions": "rated 4-5 weeks after treatment", "in_short": "as §3"}, "[8]": {"system": "GALAP (Galium)", "assay": "Postemergence herbicidal evaluation", "format": "in vivo, Galium aparine", "in_short": "as §4"}, "[9]": {"system": "ABUTH (Velvetleaf)", "assay": "Preemergence herbicidal evaluation", "format": "in vivo, Abutilon theophrasti", "conditions": "rated 4-5 weeks after treatment", "in_short": "as §3"}, "[10]": {"system": "SETVI (Foxtail, Green)", "assay": "Postemergence herbicidal evaluation", "format": "in vivo, Setaria viridis", "in_short": "as §4"}, "[11]": {"system": "ECHCG (Barnyardgrass)", "assay": "Preemergence herbicidal evaluation", "format": "in vivo, Echinochloa crus-galli", "conditions": "rated 4-5 weeks after treatment", "in_short": "as §3"}, "[12]": {"system": "ECHORC (Watergrass (Calif.))", "assay": "Preemergence weed control under flooded paddy conditions", "format": "in vivo, Echinochloa oryzoides", "conditions": "0.2500 kg/ha, rated 3-4 weeks after treatment", "in_short": "as §2"}, "[13]": {"system": "SETVI (Foxtail, Green)", "assay": "Preemergence herbicidal evaluation", "format": "in vivo, Setaria viridis", "conditions": "rated 4-5 weeks after treatment", "in_short": "as §3"}}}
{"smiles": "CCOC(=O)CN1C(=O)C(CC(=O)O)SC1=Nc1cc(-n2c(=O)cc(C(F)(F)F)n(C)c2=O)c(Cl)cc1Cl", "note": "(centres unmarked) [Compound 33, 2-{{2,4-Dichloro-5-[3,6-dihydro-3-methyl-2,6-dioxo-4-(trifluoromethyl)-1(2H)-pyrimidinyl]phenyl}-imino}-4-oxo-3,5-thiazolidinediacetic acid, 3-ethyl ester]", "values": [{"measurement": "Herbicidal rating SAGPY", "setting": "[1]", "result": 0.0}, {"measurement": "Herbicidal rating CYPIR", "setting": "[2]", "result": 0.0}, {"measurement": "Preemergence herbicidal rating ZEAMX", "setting": "[3]; rate 0.0156 kg/ha", "result": 0.0}, {"measurement": "Preemergence herbicidal rating ZEAMX", "setting": "[3]; rate 0.0313 kg/ha", "result": 0.0}, {"measurement": "Preemergence herbicidal rating ZEAMX", "setting": "[3]; rate 0.0625 kg/ha", "result": 0.0}, {"measurement": "Preemergence herbicidal rating ZEAMX", "setting": "[3]; rate 0.1250 kg/ha", "result": 0.0}, {"measurement": "Preemergence herbicidal rating ZEAMX", "setting": "[3]; rate 0.2500 kg/ha", "result": 0.0}, {"measurement": "Herbicidal rating ECHORC", "setting": "[4]", "result": 0.0}, {"measurement": "Postemergence herbicidal rating IPOHE", "setting": "[5]; Rate 0.0158 kg/ha", "result": 9.0}, {"measurement": "Postemergence herbicidal rating IPOHE", "setting": "[5]; Rate 0.0315 kg/ha", "result": 9.0}, {"measurement": "Postemergence herbicidal rating IPOHE", "setting": "[5]; Rate 0.0630 kg/ha", "result": 9.0}, {"measurement": "Postemergence herbicidal rating TRZAWR", "setting": "[6]; Rate 0.0158 kg/ha", "result": 3.5}, {"measurement": "Postemergence herbicidal rating TRZAWR", "setting": "[6]; Rate 0.0315 kg/ha", "result": 5.5}, {"measurement": "Postemergence herbicidal rating TRZAWR", "setting": "[6]; Rate 0.0630 kg/ha", "result": 6.0}, {"measurement": "Preemergence herbicidal rating IPOHE", "setting": "[7]; rate 0.0156 kg/ha", "result": 0.0}, {"measurement": "Preemergence herbicidal rating IPOHE", "setting": "[7]; rate 0.0313 kg/ha", "result": 0.0}, {"measurement": "Preemergence herbicidal rating IPOHE", "setting": "[7]; rate 0.0625 kg/ha", "result": 0.0}, {"measurement": "Preemergence herbicidal rating IPOHE", "setting": "[7]; rate 0.1250 kg/ha", "result": 0.0}, {"measurement": "Preemergence herbicidal rating IPOHE", "setting": "[7]; rate 0.2500 kg/ha", "result": 9.0}, {"measurement": "Postemergence herbicidal rating GALAP", "setting": "[8]; Rate 0.0158 kg/ha", "result": 3.0}, {"measurement": "Postemergence herbicidal rating GALAP", "setting": "[8]; Rate 0.0315 kg/ha", "result": 4.0}, {"measurement": "Postemergence herbicidal rating GALAP", "setting": "[8]; Rate 0.0630 kg/ha", "result": 5.0}, {"measurement": "Preemergence herbicidal rating ABUTH", "setting": "[9]; rate 0.0156 kg/ha", "result": 0.0}, {"measurement": "Preemergence herbicidal rating ABUTH", "setting": "[9]; rate 0.0313 kg/ha", "result": 0.0}, {"measurement": "Preemergence herbicidal rating ABUTH", "setting": "[9]; rate 0.0625 kg/ha", "result": 9.0}, {"measurement": "Preemergence herbicidal rating ABUTH", "setting": "[9]; rate 0.1250 kg/ha", "result": 9.0}, {"measurement": "Preemergence herbicidal rating ABUTH", "setting": "[9]; rate 0.2500 kg/ha", "result": 9.0}, {"measurement": "Postemergence herbicidal rating SETVI", "setting": "[10]; Rate 0.0158 kg/ha", "result": 4.0}, {"measurement": "Postemergence herbicidal rating SETVI", "setting": "[10]; Rate 0.0315 kg/ha", "result": 7.0}, {"measurement": "Postemergence herbicidal rating SETVI", "setting": "[10]; Rate 0.0630 kg/ha", "result": 8.0}, {"measurement": "Preemergence herbicidal rating ECHCG", "setting": "[11]; rate 0.0156 kg/ha", "result": 0.0}, {"measurement": "Preemergence herbicidal rating ECHCG", "setting": "[11]; rate 0.0313 kg/ha", "result": 0.0}, {"measurement": "Preemergence herbicidal rating ECHCG", "setting": "[11]; rate 0.0625 kg/ha", "result": 0.0}, {"measurement": "Preemergence herbicidal rating ECHCG", "setting": "[11]; rate 0.1250 kg/ha", "result": 0.0}, {"measurement": "Preemergence herbicidal rating ECHCG", "setting": "[11]; rate 0.2500 kg/ha", "result": 0.0}, {"measurement": "Herbicidal rating ECHORC", "setting": "[12]", "result": 0.0}, {"measurement": "Preemergence herbicidal rating SETVI", "setting": "[13]; rate 0.0156 kg/ha", "result": 0.0}, {"measurement": "Preemergence herbicidal rating SETVI", "setting": "[13]; rate 0.0313 kg/ha", "result": 0.0}, {"measurement": "Preemergence herbicidal rating SETVI", "setting": "[13]; rate 0.0625 kg/ha", "result": 3.0}, {"measurement": "Preemergence herbicidal rating SETVI", "setting": "[13]; rate 0.1250 kg/ha", "result": 3.0}, {"measurement": "Preemergence herbicidal rating SETVI", "setting": "[13]; rate 0.2500 kg/ha", "result": 9.0}]}
